Data from PubChem BioAssay AID1996.
In brackets after ≈: the same amount, converted by molar mass.

conditions: buffer; pH 7.4; 200.0 µM

Row | Structure (SMILES) | solubility kinetic [µg/mL]
1 | O=S(=O)(c1ccccc1)c1nc(-c2ccccc2Cl)oc1NCCCN1CCOCC1 | 3.6 (≈ 7.79 µM)
2 | COc1ccc2oc(=N)c(C(=O)Nc3ccc(Cl)cc3)cc2c1 | < 0.4
3 | COc1cc(/C=C/C(=O)Nc2cccnc2)cc(OC)c1OC | 40.9 (≈ 130 µM)
4 | COc1ccc(CCC(C)NCCc2ccc(Cl)cc2Cl)cc1 (stereo not given) | 21.4 (≈ 60.7 µM)
5 | Cn1c(SCC(=O)NC2CCS(=O)(=O)C2)nc2ccccc21 (stereo not given) | > 50.9
6 | CC1(c2ccc(OCC(N)=O)cc2)NC(=O)NC1=O (stereo not given) | 35.7 (≈ 136 µM)
7 | CCc1nc(N=C(N)N)nc2ccccc12 | 28 (≈ 130 µM)
8 | COc1ccccc1NC(=S)NC1CCCC1 | 35.9 (≈ 143 µM)
9 | OCC1OC(n2cnc3c(NC4CCCC4)ncnc32)C(O)C1O (stereo not given) | > 50.3
10 | CCCC(=O)NCc1ccccc1Cl | 30.2 (≈ 143 µM)
11 | CS(=O)(=O)N1CCN(CC(=O)NC2CCCC2)CC1 | > 43.4
12 | Cc1c[n+](CC(=O)c2ccccc2)cs1.[Br-] | 44.3
13 | Cc1ccc(CNC(=O)C2CCC(=O)N2Cc2ccc(F)cc2)cc1 (stereo not given) | 50.2 (≈ 147 µM)
14 | CCCC(=O)O/N=C(\c1ccccc1)c1ccncc1 | 38.4 (≈ 143 µM)
15 | COc1ccc(C(=O)OCC(=O)N2CCc3ccccc32)cc1S(=O)(=O)N1CCOCC1 | 24.8 (≈ 53.9 µM)
16 | Cc1cc(OCC(=O)NC2CCN(C)CC2)ccc1[N+](=O)[O-] | > 46.1
17 | CC(C)N(C(=O)Cn1c(Cl)nc2ccccc21)C(C)C | > 44.1
18 | CCOc1ccc(CCNC(=O)COC(=O)c2ccncc2)cc1OCC | > 55.9
19 | O=C1CN(S(=O)(=O)c2ccc([N+](=O)[O-])cc2)CC(=O)N1 | > 44.9
20 | CC1CN(CC(=O)Nc2ccc(S(N)(=O)=O)cc2)CC(C)O1 (stereo not given) | > 49.1
21 | CC(C)(CC(=O)O)CC(=O)NCc1c(Cl)cccc1Oc1ccccc1 | > 56.4
22 | CC(C)(C)CC(=O)NCCCN1CCOCC1 | > 36.4
23 | Cc1ccccc1NC(=O)NC1(C(=O)N2CCC(O)CC2)CCCCC1 | 44.1 (≈ 123 µM)
24 | O=C(Nc1ccccc1Cc1ccccc1)c1ccccc1F | 3.1 (≈ 10.2 µM)

Row | Structure (SMILES) | solubility kinetic [µg/mL]
25 | O=[N+]([O-])c1ccc(NC(=S)NCc2ccc(F)cc2)cc1 | 4.5 (≈ 14.7 µM)
26 | CC(C)N(Cc1ccccc1)S(=O)(=O)c1ccc(F)cc1 | 12 (≈ 39 µM)
27 | O=C(Nc1nc2ccccc2[nH]1)c1cc2ccccc2o1 | 2.1 (≈ 7.57 µM)
28 | CCC(=O)c1ccc(OCC(=O)OCC(=O)NCC2CCCO2)cc1 (stereo not given) | 49.5 (≈ 142 µM)
29 | Cc1ccc(C(=O)CCC(=O)NCc2ccccc2)cc1 | 16.9 (≈ 60.1 µM)
30 | CCCC(=O)Nc1cc2c3c(c1)CC(=O)N3CCC2 | > 38.7
31 | Cc1ccc(Sc2ncccc2NC(=O)c2ccccc2Cl)cc1 | 2 (≈ 5.64 µM)
32 | Cc1cc(NS(=O)(=O)c2cc(Cl)sc2Cl)no1 | > 47
33 | CCCOC(=O)CC1C(=O)NCCN1C(=O)OC(C)(C)C (stereo not given) | > 45.1
34 | Cc1nc(SCC(=O)NC2CCS(=O)(=O)C2)c2c3c(sc2n1)CCC3 (stereo not given) | 7.3 (≈ 18.4 µM)
35 | COC(=O)c1cc(NC(=S)NC(=O)c2ccccc2)ccc1N1CCOCC1 | 1.8 (≈ 4.51 µM)
36 | O=C1CC(c2ccc(Cl)cc2)CC(O)=C1C=NCCO (stereo not given) | > 44.1
37 | Cc1ccc(C(=O)N/C(=C/c2ccco2)C(=O)N2CCC(C)CC2)cc1 | > 52.9
38 | COc1ccccc1NC(=O)c1ccccc1Nc1ccccc1 | 0.5 (≈ 1.57 µM)
39 | O=C(Nc1ccc(S(=O)(=O)N2CCCCC2)cc1)c1ccco1 | 46.2 (≈ 138 µM)
40 | O=C(COC(=O)C1CC1)Nc1ccc(S(=O)(=O)N2CCOCC2)cc1 | > 55.3
41 | CCc1noc(C)c1C(=O)Nc1ccccc1C(C)(C)C | 39 (≈ 136 µM)
42 | CC(=O)c1sc(C(C)(C)C)cc1NC(=O)/C=C/C(=O)O | 40 (≈ 135 µM)
43 | CCOc1cc(/C=C2\NC(=O)NC2=O)cc([N+](=O)[O-])c1O | > 44
44 | Cc1sc2ncnc(Sc3ccccc3C(=O)O)c2c1C | 46.9 (≈ 148 µM)
45 | CCC1CN(C(=O)NCc2ccccc2)c2cc(C)ccc2O1 (stereo not given) | 3.8 (≈ 12.2 µM)
46 | Cc1ccccc1CSc1nc2ccccc2c(=O)n1C | 1.5 (≈ 5.06 µM)
47 | Cc1ccc2c(CN3CCN(Cc4ccccc4)CC3)cc(=O)oc2c1C | 25.4 (≈ 70.1 µM)
48 | O=C(NC1CCCCC1)c1ccc(-n2cncn2)c([N+](=O)[O-])c1 | > 47.3

Row | Structure (SMILES) | solubility kinetic [µg/mL]
49 | O=C(NC(=S)Nc1ccccc1C(=O)O)c1cncc(Br)c1 | > 57
50 | Cc1c(C(=O)Nc2nccs2)oc2ccc(Br)cc12 | 2 (≈ 5.93 µM)
51 | COc1ccc(CCNC(=O)COC(=O)c2cc(Cl)nc(Cl)c2)cc1 | 23.6 (≈ 61.6 µM)
52 | COC(=O)c1cc(CSc2ncnc3sccc23)oc1C | 4.3 (≈ 13.4 µM)
53 | CC1CCN(C(=O)CNC(=O)c2ccc(Br)o2)CC1 | > 49.4
54 | O=C(Nc1cc([N+](=O)[O-])ccc1N1CCCC1)c1ccco1 | 40.9 (≈ 136 µM)
55 | O=C(/C=C/c1ccc([N+](=O)[O-])cc1)OCC(=O)N1CCCC1 | > 45.6
56 | CCN(CC(=O)Nc1ccc(NC(C)=O)cc1)C(=O)c1c(C)nn(-c2ccc(F)cc2)c1Cl | > 70.8
57 | O=C(CSc1nccc(=O)[nH]1)Nc1cccc2ccccc12 | > 46.7
58 | COc1ccc(-c2csc(N=C(N)N)n2)cc1 | 12.2 (≈ 49.1 µM)
59 | CC(C)c1nc(SCC(=O)NC(=O)NC(C)(C)C)n[nH]1 | > 44.9
60 | Cc1nc(C(=O)NCC(=O)c2ccccc2)c(C(F)(F)F)o1 | > 46.8
61 | NCC(c1ccccc1)c1c[nH]c2ccccc12 (stereo not given) | 22.1 (≈ 93.5 µM)
62 | Cc1cc(C)c2cc(C(=O)Nc3ccccc3)[nH]c2c1 | 1.2 (≈ 4.54 µM)
63 | COc1ccccc1NC(=S)N1CCCCCC1 | > 39.7
64 | FC(F)(F)c1cccc(CN2CCSCC2)c1 | < 0.6
65 | Cc1cccc(N2C(=O)CSC23CCCCC3)c1 | 20.3 (≈ 77.7 µM)
66 | COc1ccc(C(=O)O)cc1S(=O)(=O)NCc1ccccn1 | > 48.4
67 | COc1cccc(C(=O)N(C)Cc2c(C)nn(C3CCS(=O)(=O)C3)c2C)c1 (stereo not given) | > 58.7
68 | Cc1ccc(C(C)NC(=O)c2ccc3c(c2)OCO3)cc1C (stereo not given) | 39.4 (≈ 133 µM)
69 | C=C1C(C(=O)Nc2ccccc2)C1C(=O)Nc1ccccc1 (stereo not given) | < 0.3
70 | N#C/C(=C\N1CCCCC1)S(=O)(=O)c1ccc(Cl)cc1 | 8.2 (≈ 26.4 µM)
71 | CC1(C)CC(=O)c2sc(NS(=O)(=O)c3ccccc3)nc2C1 | 48.9 (≈ 145 µM)
72 | Cc1ccc(S(=O)(=O)N2CCN(Cc3ccco3)CC2)cc1C | 13.1 (≈ 39.2 µM)

Row | Structure (SMILES) | solubility kinetic [µg/mL]
73 | Cc1[nH]c2ccccc2c1/C=C(\C#N)C(=O)NC1CC1 | 6.8 (≈ 25.6 µM)
74 | COC(=O)C1=C(C)N(C)C(=S)NC1c1cc(OC)ccc1OC (stereo not given) | 36.5 (≈ 108 µM)
75 | COc1ccccc1CNC(=O)CC(C)c1ccccc1 (stereo not given) | 39.8 (≈ 140 µM)
76 | Cc1c(N2CCCC2)cc2c(c1N)C(C)(C)CC2(C)C | 19.2 (≈ 70.5 µM)
77 | Cc1ccc2c(c1)C1(OCCCO1)C(=O)N2CC#N | 37.6 (≈ 146 µM)
78 | O=C(CNC(=O)c1ccco1)Nc1ccncc1 | 36.4 (≈ 148 µM)
79 | Cc1cccc(C(=O)N2CCCC(Nc3ccc(C)c(C)c3)C2)n1 (stereo not given) | 42.1 (≈ 130 µM)
80 | CCCCOC(=O)c1sc2nc(C)cc(C)c2c1N | 0.6 (≈ 2.16 µM)
81 | O=C(O)CNC(=O)/C=C/c1ccc(Cl)cc1Cl | 37.6 (≈ 137 µM)
82 | COc1ccc(NS(=O)(=O)c2cccs2)cn1 | > 40.5
83 | O=c1cc(COc2ccc(Cl)c(Cl)c2)nc2sccn12 | 1.1 (≈ 3.36 µM)
84 | Cc1cccc(C(=O)NCC(=O)N2CCCC2)c1 | > 36.9
85 | O=C(c1cc(-c2cccc(Cl)c2)on1)N1CCCC1 | 7.5 (≈ 27.1 µM)
86 | CC(OC(=O)C1CCC1)C(=O)Nc1cc(Cl)cc(Cl)c1 (stereo not given) | 2.4 (≈ 7.59 µM)
87 | CCCN(CCC)S(=O)(=O)c1cc2c3c(c1)CCN3C(=O)CC2 | > 50.5
88 | O=C(NC(=S)Nc1ccc(Cl)cc1)c1cncc(Br)c1 | 3.4 (≈ 9.17 µM)
89 | CCc1ccccc1N(CC(=O)N1CCCCCC1)S(C)(=O)=O | 43.5 (≈ 129 µM)
90 | Cc1ccc(CNC(=O)C2CCC(=O)N(C3CC3)C2)cc1 (stereo not given) | > 43
91 | COc1ccc2c(c1OC)C(=O)N1C2SC[C@H]1C(=O)NC1CC1 (stereo not given in full) | > 50.2
92 | CC(=O)c1c(Nc2cccc(F)c2)oc(C)cc1=O | 31.3 (≈ 120 µM)
93 | S=C(Nc1ccccn1)Nc1ccccc1Cl | 2.1 (≈ 7.96 µM)
94 | CCOC(=O)c1cc2c(=O)[nH]c(C(Cl)(Cl)Cl)nc2o1 | > 48.8
95 | Cc1nc(C(F)(F)F)ccc1C(=O)Nc1ccc2ccccc2n1 | 3.3 (≈ 9.96 µM)
96 | Cc1ccc(S(=O)(=O)N2CCOCC2)cc1NC(=O)COC(=O)/C=C/c1ccco1 | 11.4 (≈ 26.2 µM)

Row | Structure (SMILES) | solubility kinetic [µg/mL]
97 | CC(=O)N(C1=NCCCS1)c1ccc(Cl)cc1 | 32.8 (≈ 122 µM)
98 | O=C1c2ccccc2-c2nc3ccccc3cc21 | < 0.5
99 | Clc1ccc(-c2cnc3n2CCCCC3)cc1 | > 37
100 | COc1cccc(C(=O)NCCCNC(=O)c2cccnc2)c1 | > 47
101 | O=C(CN1C(=O)c2ccccc2S1(=O)=O)Nc1cccc(S(=O)(=O)N2CCOCC2)c1 | > 69.8
102 | COc1ccc(CCNC(=O)CN(C)S(=O)(=O)c2ccc(OC)cc2)cc1 | > 58.9
103 | O=[N+]([O-])c1cccc(CSc2ncnc3ccccc23)c1 | 2 (≈ 6.73 µM)
104 | Cc1ccc(CCCOC(=O)CN2CCCCC2)cc1 | 23.5 (≈ 85.3 µM)
105 | O=C(COC(=O)CNC(=O)c1ccc(Cl)cc1Cl)NC1CC1 | > 51.8
106 | CC(=O)C1=C(C)OC(N)=C(C#N)C1c1cccc2ccccc12 (stereo not given) | 37.6 (≈ 124 µM)
107 | C=CCn1c(O)c(C(CC)=NCc2ccc3c(c2)OCO3)c(=O)[nH]c1=O | 3 (≈ 8.39 µM)
108 | O=C(COC(=O)CNC(=O)c1ccccc1F)Nc1ccc(Cl)cn1 | 22.2 (≈ 60.7 µM)
109 | COc1ccc(C(C)(C)C)cc1NC(=O)C1CC(=O)N(C2CCCC2)C1 (stereo not given) | > 53.8
110 | COCCSc1nc(N)c2c3c(sc2n1)CN(C)CC3 | > 46.6
111 | O=C(CCc1ccccc1)Nc1cc2c(cc1C(=O)O)OCCCO2 | > 51.2
112 | COc1ccc(NC(=O)CCCc2ccccc2)cc1OC | 29.2 (≈ 97.5 µM)
113 | CCOc1ncccc1C(=O)OCC(=O)Nc1ccc2c(c1)CCC2 | 8.1 (≈ 23.8 µM)
114 | COc1cc(SC)ccc1C(=O)OCC(=O)N1CC(=O)Nc2ccccc21 | 17.6 (≈ 45.5 µM)
115 | O=C(O)c1ccc2ncsc2c1 | > 26.9
116 | Cc1ccc(CONS(=O)(=O)c2cc(C)ccc2C)cc1 | 5.2 (≈ 17 µM)
117 | O=C(Cc1ccc(Cl)cc1)NCC(=O)N1CCCCCC1 | > 46.3
118 | COc1cc(OC)c(NC(=O)/C=C/C(=O)O)cc1Cl | > 42.9
119 | CCOC(=O)C1CCN(Cc2ccc(Cl)nc2)CC1 | > 42.4
120 | Cc1ccccc1CN1CCN(CC(=O)NCc2ccccc2)CC1 | > 50.6
